Experiment: in vitro
Conditions: human, hela cells, % viability

| Compound | viability at 28.5 h, 10 µM |
| --- | --- |
| CCOc1ccc(OC(=O)c2ccc3c(c2)OCO3)cc1 [CBK149205] | 92.6% |
| COc1cc2c(cc1OC)C(c1ccc(C(=O)O)cc1)NCC2 (stereo not drawn) [CBK286738] | 90.2% |
| O=C(CSc1nc(-c2ccco2)cc(C(F)(F)F)n1)NCc1ccco1 [CBK266091] | 95.1% |
| O=C(NCCCNc1ccc([N+](=O)[O-])cc1)c1cccs1 [CBK066825] | 94.1% |
| CCCS(=O)(=O)N1CCC2(CCCN(Cc3cccc(F)c3F)C2=O)C1 (stereo not drawn) [CBK306694] | 90.8% |
| CC(C)c1nc(C2CCCN(c3ncc(C#N)cc3Cl)C2)no1 (stereo not drawn) [CBK304128] | 111% |
| c1cncc(-c2nc(NCCN3CCOCC3)c3ccccc3n2)c1 [CBK264566C] | 91% |
| Cc1sc(C(=O)Nc2ccc3ccccc3c2)cc1CC(=O)O [CBK267710] | 96.4% |
| CCOC(=O)N1CCC(NC(=O)N2CCCC(CO)C2)CC1 (stereo not drawn) [CBK156345] | 90.6% |
| Cc1ccc(S(=O)(=O)NC2c3cccc4cccc(c34)C2Sc2nnc(N)s2)cc1 (stereo not drawn) [CBK265835] | 107% |
| O=C(COc1ccc(S(=O)(=O)N2CCOCC2)cc1)NCc1ccco1 [CBK268377] | 108% |
| Nc1ncc(-c2cccc3ccccc23)nc1Nc1ccc2[nH]ccc2c1 [CBK063659] | 90.9% |
| Cc1cc(C)nc(N2CCC(CC(=O)N(C)CC(C)c3ccccc3)CC2)n1 (stereo not drawn) [CBK286105] | 83.5% |
| OCCN1CCN(c2nccc(C(F)(F)F)n2)CC1 [CBK028754] | 107% |
| c1ccc(OCc2nn3c(Cn4nnc5ccccc54)nnc3s2)cc1 [CBK268330] | 95.9% |
| CC(C)(C)NS(=O)(=O)c1cccc2nonc12 [CBK265569] | 115% |
| OCCN1CCN(c2nc(-c3ccc4c(c3)OCO4)cn3ccnc23)CC1 [CBK037443] | 99.1% |
| c1ccc2c(c1)CCC[C@H]2Oc1cncc(N2CCNCC2)n1 [CBK172388G] | 90.7% |
| O=[N+]([O-])c1ccccc1N/N=C/c1c[nH]c2ccccc12 [CBK261679] | 89.6% |
| Nc1ccc(CCNC(=O)c2cnc(-c3cccc(C(F)(F)F)c3)c(-c3ccncc3)c2)cc1 [CBK037580] | 90.8% |
| CC(C)(C)c1nc(NS(=O)(=O)c2ccc(Cl)cc2)sc1Br [CBK014258] | 102% |
| COc1ccc(S(=O)(=O)Nc2ccsc2C(=O)N2CCN(C)CC2)cc1OC [CBK004627] | 95.3% |
| COc1cc(OC)cc(C(=O)N2CCC3(CC2)CC(=O)c2cc(F)cc(F)c2O3)c1 [CBK168089] | 108% |

| Compound | viability at 28.5 h, 10 µM |
| --- | --- |
| CC(=O)Nc1ccc(OCCO)cc1 [CBK149724] | 86.6% |
| Cc1ccc(S(=O)(=O)N(CC(=O)N2CCN(C)CC2)Cc2ccc(Cl)cc2Cl)cc1 [CBK265144] | 100% |
| C=CCNCc1cc2c(C)nn(-c3ccccc3)c2[nH]c1=O [CBK282898] | 88.7% |
| COc1ccc(C(C)C)cc1-c1nccnc1NCCc1c[nH]c2ccccc12 [CBK036650] | 109% |
| Cc1ccc(C2(C(=O)NC(C)c3ccccn3)CCOCC2)cc1 (stereo not drawn) [CBK281903] | 90.5% |
| OCCN1CCN(c2cc(Nc3ccc(Oc4ccccc4)cc3)nc3ccnn23)CC1 [CBK037185] | 94.9% |
| COc1cccc(Oc2nccnc2-c2ccc3c(c2)OCO3)c1 [CBK106704] | 94.9% |
| COc1ccc(CCC(=O)Nc2ncn(Cc3cccc(C)c3)n2)cc1 [CBK288227] | 91.7% |
| O=C(c1cc(C2CCCN(Cc3ccccc3)C2)no1)N1CCCC1 (stereo not drawn) [CBK283395] | 89.7% |
| CC1CCCCN1CC(C)(C)NC(=O)c1cc(C2CC2)on1 (stereo not drawn) [CBK281676] | 100% |
| Cc1cc(C)cc(OC(C)C(=O)N2CCCc3c(cnn3C)C2)c1 (stereo not drawn) [CBK285270] | 82.1% |
| CC1=CC(C)C2(COC(=O)Nc3ccccc3)COC(c3cccnc3)C1C2C (stereo not drawn) [CBK262844] | 86.2% |
| COCCn1cc(CN2CCC(CO)C2)c2ccccc21 (stereo not drawn) [CBK282123] | 99.2% |
| CCCN1CC(NS(=O)(=O)c2ccc3oc(=O)n(C)c3c2)CC1=O (stereo not drawn) [CBK307664] | 92.6% |
| OC[C@]1(c2ccccc2)CC[C@H](N2CCCC2)CC1 [CBK016010] | 85.5% |
| COc1ccc(OCCCN2C(=O)C3(CC(=O)N(Cc4ccccc4)C3=O)c3cc(OC)ccc32)cc1 (stereo not drawn) [CBK075523] | 106% |
| CC(=O)c1c(C)oc2ccc(N(C(=O)c3cccc([N+](=O)[O-])c3)S(=O)(=O)c3cccc4cccnc34)cc12 [CBK267044] | 70.2% |
| Cc1cccc(C(=O)NC(=S)Nc2cccc(C(=O)O)c2)c1 [CBK264987] | 121% |
| Cn1nnnc1SCCNC(=O)Nc1cccc(CN2CCCCC2)c1 [CBK306872] | 97.3% |
| CC(C)CC(=O)N1C[C@H]2CCCN(Cc3ccccn3)[C@H]2C1 [CBK285269] | 86.6% |
| CC(C)Cn1c(=O)[nH]c2ncc(-c3cncnc3)nc21 [CBK064177] | 90.1% |
| O=C(Cn1ncc2cccn2c1=O)OC1CCCCC1 [CBK283667] | 91.8% |
| CC1(C)CC(=O)c2sc(NC(=O)c3cncnc3)nc2C1 [CBK144107] | 101% |

| Compound | viability at 28.5 h, 10 µM |
| --- | --- |
| O=c1ccc2c(-c3ccccc3)ccnc2[nH]1 [CBK073723] | 94.2% |
| O=C1N=C(NC2CCCCCC2)SC1CC(=O)N1CCCC1 (stereo not drawn) [CBK063342] | 95.3% |
| Cc1cc(OC(C)C(=O)Nn2cnnc2)ccc1Cl (stereo not drawn) [CBK269690] | 98.1% |
| O=C1COc2ccccc2C/C=C/CC2(CCCN(C(=O)CN3CSCC3=O)C2)CN1 (stereo not drawn) [CBK292035] | 116% |
| CS(=O)(=O)c1ccc(Cn2c(=O)[nH]c3ncc(-c4cccc(/C=C/C(=O)O)c4)nc32)cc1 [CBK065059] | 97.7% |
| COc1cc2ncnc(NCc3ccccc3)c2cc1OC [CBK287984] | 79.7% |
| NC(=O)C1(N2CCCCC2)CCN(C2CC(=O)N(Cc3ccc(N4CCCC4=O)cc3)C2=O)CC1 (stereo not drawn) [CBK266598] | 102% |
| CN(c1ncc(-c2ccccc2)cc1C(=O)NCc1cccnc1)S(C)(=O)=O [CBK076507] | 98.9% |
| O=C(O)CC(C(=O)Nc1ccccc1)N1CCOCC1 (stereo not drawn) [CBK287182] | 94.8% |
| O=C1CCCN1CCCNC(=O)N1CCN(Cc2ccccc2)CC1 [CBK155658] | 104% |
| CS(=O)(=O)c1ccc2nc(Nc3nc4c(F)cccc4s3)sc2c1 [CBK287478] | 101% |
| N#Cc1cnc(NCc2ccccc2)nc1N [CBK015764] | 90% |
| CCc1nc(C(C)NC(=O)COc2nn(C)c3nc(C)cc(C)c23)cs1 (stereo not drawn) [CBK306024] | 93.3% |
| CN(C(=O)c1cc(S(=O)(=O)N2CCOCC2)ccc1F)C1CCCCC1 [CBK304580] | 114% |
| O=C(CCN1CCCC12CCc1[nH]c3ccccc3c1C2)c1ccc(F)cc1 (stereo not drawn) [CBK084593] | 92.6% |
| CC1CCCCN1C(=O)Cn1ncn2c(cc3ccsc32)c1=O (stereo not drawn) [CBK284201] | 92.1% |
| NS(=O)(=O)c1ccc(NC(=S)N2CCN(CCO)CC2)cc1 [CBK265891] | 87.5% |
| O=C1Nc2cc(Cl)ccc2C(=O)N2CC[C@H](NC(=O)N3CCOCC3)[C@@H]12 [CBK289340] | 87.7% |
| C[C@@H](Cn1nc2c(cc1=O)CCCC2)NC(=O)c1ccc(F)cc1 [CBK284562] | 91.3% |
| CC(C(=O)Nc1ccc(S(N)(=O)=O)cc1)N(C)Cc1cccs1 (stereo not drawn) [CBK305945] | 88.8% |
| Cc1ccccc1CSCCNC(=O)Nc1ccc(Cl)cc1 [CBK268669] | 101% |
| COc1cc(NC(=O)CCc2ccccc2)nc(OC)n1 [CBK072282] | 79.5% |
| CCCC(=O)c1ccc(S(=O)(=O)N2CCN(CCCOC3CCCCO3)CC2)cc1 (stereo not drawn) [CBK062858] | 96.6% |

| Compound | viability at 28.5 h, 10 µM |
| --- | --- |
| Cc1cc(C)n(CCN2CCC(N(C)Cc3nnc(C)n3C)C2)n1 (stereo not drawn) [CBK304449] | 94.3% |
| c1ccc2nc(N3CCCC3)c(OCc3ccsc3)nc2c1 [CBK115819] | 90.2% |
| CCOC(=O)CC(=O)CSc1nc(C)cc(-c2cccs2)c1C#N [CBK267446] | 86.6% |
| CCC(CO)Nc1cncc(-c2ccc3c(c2)OCO3)n1 (stereo not drawn) [CBK065970] | 98.4% |
| Cc1ccccc1OCCCn1cncc1-c1cnn(C)c1 [CBK281762] | 91.1% |
| CCn1cc(C(=O)N2CCCCC2c2nc3cc(C)ccc3[nH]2)cn1 (stereo not drawn) [CBK283869] | 84.6% |
| CCC1CN(C(=O)Cn2cnc3ccc(F)cc3c2=O)CCO1 (stereo not drawn) [CBK305795] | 92.4% |
| COc1ccc(-n2cc(-c3ccc(C(F)(F)F)cc3)nn2)cc1OC [CBK112952] | 96.8% |
| O=C(C1CC1)N1CCC[C@H]1Cn1nc(-c2ccc(F)cc2)ccc1=O [CBK284252] | 79.8% |
| Nc1nnc(CCS(=O)(=O)c2ccc(Br)cc2)s1 [CBK026286] | 109% |
| Cc1c(CN(C)CC2CCN(C)C2)cnn1Cc1ccccc1 (stereo not drawn) [CBK282616] | 105% |
| COc1cccc(/C=N/NC(=O)CSc2nnc(C)n2-c2ccccc2)c1O [CBK262758] | 80.7% |
| CCn1cc(C(=O)NN)c(=O)c2cc(F)c(N3CCSCC3)cc21 [CBK307148] | 98.8% |
| Cc1occc1C(=O)Nc1nc(CC(=O)N2CC(C)SC(C)C2)cs1 (stereo not drawn) [CBK306271] | 87.8% |
| Cc1ccc(C(C)C(=O)N2CCC(O)(c3ccccn3)CC2)cc1 (stereo not drawn) [CBK283787] | 86.7% |
| Cc1nc2c(c(=O)[nH]1)CCN(Cc1ccc(Cl)c(Cl)c1)C2 [CBK283969] | 81.6% |
| CC(NS(=O)(=O)c1cc(Cl)ccc1Cl)C(=O)Nc1ccccc1 (stereo not drawn) [CBK267871] | 110% |
| CC(=O)OCc1c(C)cc(C)c(CN(C)C(C)c2ccon2)c1C (stereo not drawn) [CBK306780] | 79.3% |
| CCCCc1ccc(N)c(C)c1 [CBK164057C] | 89.9% |
| COCCN(Cc1ccccc1C)C(=O)C1CCc2nn(C)c(=O)n2C1 (stereo not drawn) [CBK306934] | 80.8% |

Same assay, conditions: human, hela cells, % viability, bulk resorufin, single well

| Compound | viability at 28.5 h, 10 µM |
| --- | --- |
| O=C1NC(=S)NC(=O)C1=Cc1cn(-c2ccccc2)nc1-c1ccc(-c2ccc([N+](=O)[O-])cc2)o1 [CBK263149] | 107% |

Reference: publication PMC12040169 (PLOS Biology, 2025)
